Assay results from patent US20260347373A1, “HETEROCYCLIC COMPOUNDS, COMPOSITIONS THEREOF, AND METHODS OF TREATMENT THEREWITH” (BeOne Medicines I GmbH, priority 2023, published 2026).
Like-named read-outs stand apart in the source and are kept apart here.

Key:
WT KRAS = WT KRAS (Homo sapiens, UniProt P01116); assay: KRAS WT Probe Displacement Assay (TR-FRET, GDP-loaded); type: binding
Source text: (§1) The synthetic routes of probe 1 and 2, which have been disclosed in PCT/CN2022/070676, are hereby incorporated herein.

KRAS G12D = KRAS G12D (Homo sapiens, UniProt P01116, G12D); assay: KRAS G12D Probe Displacement Assay (TR-FRET, GDP-loaded); type: binding
Source text: as §1

[1] = KRAS WT, read-out: KRAS^WT Probe Displacement Assay IC50
[2] = KRAS G12D, read-out: KRAS^G12D Probe Displacement Assay IC50

Sequence of KRAS G12D (P01116 1-188 isoform P01116-2 G12D): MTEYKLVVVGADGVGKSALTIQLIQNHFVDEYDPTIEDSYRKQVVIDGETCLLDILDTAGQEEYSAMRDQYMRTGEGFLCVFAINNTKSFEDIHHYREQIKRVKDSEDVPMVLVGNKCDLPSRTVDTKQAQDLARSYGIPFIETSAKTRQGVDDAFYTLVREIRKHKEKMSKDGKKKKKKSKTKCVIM
Sequence of WT KRAS (P01116 1-188 isoform P01116-2): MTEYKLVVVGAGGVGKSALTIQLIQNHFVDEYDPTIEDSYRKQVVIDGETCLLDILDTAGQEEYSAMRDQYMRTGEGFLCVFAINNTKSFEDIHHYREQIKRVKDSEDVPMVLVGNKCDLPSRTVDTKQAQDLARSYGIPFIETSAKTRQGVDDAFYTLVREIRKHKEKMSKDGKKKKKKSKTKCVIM

Row | Compound | IC50 (WT KRAS; [1]) [nM] | IC50 (KRAS G12D; [2]) [nM] | IC50 (WT KRAS; KRAS^WT Probe Displacement Assay IC50, KRAS WT) [nM] | IC50 (KRAS G12D; KRAS^G12D Probe Displacement Assay IC50, KRAS G12D) [nM]
1 | Cc1cc(N)cc(-c2nc3c4c(nc(OC[C@@]56C[C@H](F)CN5C[C@H](F)C6)nc4c2F)N2C[C@H]4CC[C@H](N4)[C@H]2CCO3)c1C(F)(F)F [Example 213, 3-((6aR,7S,10R)-13-(((2R,6S,7as)-2,6-difluorotetrahydro-1H-pyrrolizin-7a(5H)-yl)methoxy)-1-fluoro-5,6,6a,7,8,9,10,11-octahydro-4-oxa-3,11a,12,14,15-pentaaza-7,10-methanocyclohepta[4,5]cycloocta[1,2,3-de]naphthalen-2-yl)-5-methyl-4-(trifluoromethyl)aniline] | 3 to 1000 | 0.3 to 3 | – | –
2 | Cc1cc(N)cc(-c2nc3c4c(nc(OCC5(CN6C[C@@H]7C[C@@H]7[C@H]6C)CC5)nc4c2F)N2C[C@H]4CC[C@H](N4)[C@H]2CCO3)c1C(F)(F)F [Example 171, 3-((6aR,7S,10R)-1-fluoro-13-((1-(((1S,2R,5R)-2-methyl-3-azabicyclo[3.1.0]hexan-3-yl)methyl)cyclopropyl)methoxy)-5,6,6a,7,8,9,10,11-octahydro-4-oxa-3,11a,12,14,15-pentaaza-7,10-methanocyclohepta[4,5]cycloocta[1,2,3-de]naphthalen-2-yl)-5-methyl-4-(trifluoromethyl)aniline] | 3 to 1000 | < 0.3 | – | –
3 | Cc1cc(N)cc(-c2nc3c4c(nc(OCC56C=CCN5C[C@H](F)C6)nc4c2F)N2C[C@H]4CC[C@H](N4)[C@H]2CCO3)c1C(F)(F)F (single isomer, unassigned) [Example 204] | 3 to 1000 | < 0.3 | – | –
4 | CO[C@H]1CN2C[C@H](F)C[C@]2(COc2nc3c4c(nc(-c5cc(N)cc(C)c5C(F)(F)F)c(F)c4n2)OCC[C@@H]2[C@@H]4CC[C@H](CN32)N4)C1 [Example 214, 3-((6aR,7S,10R)-1-fluoro-13-(((2R,6R,7aS)-2-fluoro-6-methoxytetrahydro-1H-pyrrolizin-7a(5H)-yl)methoxy)-5,6,6a,7,8,9,10,11-octahydro-4-oxa-3,11a,12,14,15-pentaaza-7,10-methanocyclohepta[4,5]cycloocta[1,2,3-de]naphthalen-2-yl)-5-methyl-4-(trifluoromethyl)aniline] | 3 to 1000 | < 0.3 | – | –
5 | [2H]C([2H])([2H])N1C[C@H](OC)C[C@H]1[C@H](C)Oc1nc2c3c(nc(-c4cc(N)cc(Cl)c4C(F)(F)F)c(F)c3n1)OCC[C@@H]1[C@@H]3CC[C@H](CN21)N3 [Example 220, 3-chloro-5-((6aR,7S,10R)-1-fluoro-13-((S)-1-((2S,4R)-4-methoxy-1-(methyl-d3)pyrrolidin-2-yl)ethoxy)-5,6,6a,7,8,9,10,11-octahydro-4-oxa-3,11a,12,14,15-pentaaza-7,10-methanocyclohepta[4,5]cycloocta[1,2,3-de]naphthalen-2-yl)-4-(trifluoromethyl)aniline] | 3 to 1000 | < 0.3 | – | –
6 | Cc1cc(N)cc(-c2nc3c4c(nc(OCC5(CN6CCC7(CC6)CC7(F)F)CC5)nc4c2F)N2C[C@H]4CC[C@H](N4)[C@H]2CCO3)c1C(F)(F)F [Example 158, 3-((6aR,7S,10R)-13-((1-((1,1-difluoro-6-azaspiro[2.5]octan-6-yl)methyl)cyclopropyl)methoxy)-1-fluoro-5,6,6a,7,8,9,10,11-octahydro-4-oxa-3,11a,12,14,15-pentaaza[7,10]methanocyclohepta[4,5]cycloocta[1,2,3-de]naphthalen-2-yl)-5-methyl-4-(trifluoromethyl)aniline] | 0.3 to 3 | < 0.3 | – | –
7 | Cc1cc(N)cc(-c2nc3c4c(nc(OCC5(C)CC(F)CN(C6CCOCC6)C5)nc4c2F)N2C[C@H]4CC[C@H](N4)[C@H]2CCO3)c1C(F)(F)F (single isomer, unassigned) [Example 232] | 0.3 to 3 | < 0.3 | – | –
8 | Cc1cc(N)cc(-c2nc3c4c(nc(OCC5(CN6C[C@@H]7[C@@H](F)[C@@H]7C6)CC5)nc4c2F)N2C[C@H]4CC[C@H](N4)[C@H]2CCO3)c1C(F)(F)F [Example 169, 3-((6aR,7S,10R)-1-fluoro-13-((1-(((1R,5S,6S)-6-fluoro-3-azabicyclo[3.1.0]hexan-3-yl)methyl)cyclopropyl)methoxy)-5,6,6a,7,8,9,10,11-octahydro-4-oxa-3,11a,12,14,15-pentaaza-7,10-methanocyclohepta[4,5]cycloocta[1,2,3-de]naphthalen-2-yl)-5-methyl-4-(trifluoromethyl)aniline] | 3 to 1000 | < 0.3 | – | –
9 | Cc1cc(N)cc(-c2nc3c4c(nc(N5CC(N(C)C)C5)nc4c2F)N2C[C@H]4CC[C@H](N4)[C@H]2CCO3)c1C(F)(F)F [Example 32, 1-((6aR,7S,10R)-2-(5-amino-3-methyl-2-(trifluoromethyl)phenyl)-1-fluoro-5,6,6a,7,8,9,10,11-octahydro-4-oxa-3,11a,12,14,15-pentaaza-7,10-methanocyclohepta[4,5]cycloocta [1,2,3-de]naphthalen-13-yl)-N,N-dimethylazetidin-3-amine] | 3 to 1000 | 0.3 to 3 | – | –
10 | Cc1cc(N)cc(-c2nc3c4c(nc(OCC5(CN6C[C@H]7COC[C@H]7C6)CC5)nc4c2F)N2C[C@H]4CC[C@H](N4)[C@H]2CCO3)c1C(F)(F)F [Example 100, 3-((6aR,7S,10R)-1-fluoro-13-((1-(((3aR,6aS)-tetrahydro-1H-furo[3,4-c]pyrrol-5(3H)-yl)methyl)cyclopropyl)methoxy)-5,6,6a,7,8,9,10,11-octahydro-4-oxa-3,11a,12,14,15-pentaaza-7,10-methanocyclohepta [4,5]cycloocta [1,2,3-de]naphthalen-2-yl)-5-methyl-4-(trifluoromethyl) aniline] | – | – | 0.3 to 3 | < 0.3
11 | Cc1cc(N)cc(-c2nc3c4c(nc(OC[C@]56CCCN5CC(F)(F)C6)nc4c2F)N2C[C@H]4CC[C@H](N4)[C@H]2CCO3)c1C(F)(F)F [Example 34, 3-((6aR,7S,10R)-13-(((R)-2,2-difluorotetrahydro-1H-pyrrolizin-7a(5H)-yl)methoxy)-1-fluoro-5,6,6a,7,8,9,10,11-octahydro-4-oxa-3,11a,12,14,15-pentaaza-7,10-methanocyclohepta[4,5]cycloocta [1,2,3-de]naphthalen-2-yl)-5-methyl-4-(trifluoromethyl)aniline] | 3 to 1000 | 0.3 to 3 | – | –
12 | Cc1cc(N)cc(-c2nc3c4c(nc(OCC5(CN6CC7C(C6)C7(F)F)CC5)nc4c2F)N2C[C@H]4CC[C@H](N4)[C@H]2CCO3)c1C(F)(F)F (stereo partly drawn) [Example 168, 3-((6aR,7S,10R)-13-((1-((6,6-difluoro-3-azabicyclo[3.1.0]hexan-3-yl)methyl)cyclopropyl)methoxy)-1-fluoro-5,6,6a,7,8,9,10,11-octahydro-4-oxa-3,11a,12,14,15-pentaaza-7,10-methanocyclohepta[4,5]cycloocta[1,2,3-de]naphthalen-2-yl)-5-methyl-4-(trifluoromethyl)aniline] | 3 to 1000 | < 0.3 | – | –
13 | Cc1cc(N)cc(-c2nc3c4c(nc(OCC5(CN6CC7CC7C6)CC5(F)F)nc4c2F)N2C[C@H]4CC[C@H](N4)[C@H]2CCO3)c1C(F)(F)F (single isomer, unassigned) [Example 28] | 3 to 1000 | < 0.3 | – | –
14 | Cc1cc(N)cc(-c2nc3c4c(nc(OCC5(CN6CCC(C)(C#N)C6)CC5)nc4c2F)N2C[C@H]4CC[C@H](N4)[C@H]2CCO3)c1C(F)(F)F (stereo partly drawn) [Example 167, 1-((1-((((6aR,7S,10R)-2-(5-amino-3-methyl-2-(trifluoromethyl)phenyl)-1-fluoro-5,6,6a,7,8,9,10,11-octahydro-4-oxa-3,11a,12,14,15-pentaaza-7,10-methanocyclohepta[4,5]cycloocta[1,2,3-de]naphthalen-13-yl)oxy)methyl)cyclopropyl)methyl)-3-methylpyrrolidine-3-carbonitrile] | 0.3 to 3 | < 0.3 | – | –
15 | Cc1cc(N)cc(-c2nc3c4c(nc(OCC5(CN(C)C)CC5(F)F)nc4c2F)N2C[C@H]4CC[C@H](N4)[C@H]2CCO3)c1C(F)(F)F (stereo partly drawn) [Example 16] | 3 to 1000 | < 0.3 | – | –
16 | Cc1cc(N)cc(-c2nc3c4c(nc(OCC5(CN6CC(O)(C(F)(F)F)C6)CC5)nc4c2F)N2C[C@H]4CC[C@H](N4)[C@H]2CCO3)c1C(F)(F)F [Example 80, 1-((1-((((6aR,7S,10R)-2-(5-amino-3-methyl-2-(trifluoromethyl)phenyl)-1-fluoro-5,6,6a,7,8,9,10,11-octahydro-4-oxa-3,11a,12,14,15-pentaaza-7,10-methanocyclohepta[4,5]cycloocta [1,2,3-de]naphthalen-13-yl)oxy)methyl)cyclopropyl)methyl)-3-(trifluoromethyl) azetidin-3-ol] | 3 to 1000 | < 0.3 | – | –
17 | Cc1cc(N)cc(-c2nc3c4c(nc(OCC5(CN6CCCC(C)(O)C6)CC5)nc4c2F)N2C[C@H]4CC[C@H](N4)[C@H]2CCO3)c1C(F)(F)F (mixture of isomers) [Example 116, 1-((1-((((6aR,7S, 10R)-2-(5-amino-3-methyl-2-(trifluoromethyl)phenyl)-1-fluoro-5,6,6a,7,8,9,10,11-octahydro-4-oxa-3,11a,12,14,15-pentaaza-7,10-methanocyclohepta [4,5]cycloocta [1,2,3-de]naphthalen-13-yl)oxy)methyl)cyclopropyl)methyl)-3-methylpiperidin-3-ol] | 3 to 1000 | 0.3 to 3 | – | –
18 | Cc1cc(N)cc(-c2nc3c4c(nc(OCC5(CN6C[C@H]7C[C@@H]6CO7)CC5)nc4c2F)N2C[C@H]4CC[C@H](N4)[C@H]2CCO3)c1C(F)(F)F [Example 65, 3-((6aR,7S,10R)-13-((1-(((1R,4R)-2-oxa-5-azabicyclo[2.2.1]heptan-5-yl)methyl)cyclopropyl)methoxy)-1-fluoro-5,6,6a,7,8,9,10,11-octahydro-4-oxa-3,11a,12,14,15-pentaaza-7,10-methanocyclohepta[4,5]cycloocta [1,2,3-de]naphthalen-2-yl)-5-methyl-4-(trifluoromethyl)aniline] | 3 to 1000 | < 0.3 | – | –
